# Assay results: patent US8536222B2, “Addition compounds of guanidinoacetic acid” (AlzChem AG, priority 2005, dated 2013)
# Tests used:
# [1] = test system: fattened chicken; assay: feed for fattened chicken, 42 day fattening period; format: in vivo; details: 0.2% by weight in air-dried feed
# Method: • 2.1 A formulation consisting of 5000 mg guanidinoacetic acid malate and 5000 mg inulin was introduced into a typical formulation of feed pellets as a feed supplement for horses. • 2.2 A formulation consisting of 7000 mg guanidinoacetic acid lactate, 750 mg carnitine tartrate, 100 mg sucrose stearate, 160 mg talcum and 1090 mg fructose was introduced into the basic bulk for dog biscuits. • 2.3 The following formulation was introduced homogenously as a master batch into a commercially canned cat food mixture: 3000 mg guanidinoacetic acid citrate, 3000 mg creatine, 40 mg magnesium stearate, 25 mg carboxymethyl-cellulose and […] lactose. • 2.4 Feed for fattened chicken
# In addition the consumption of feed decreased by about 6% compared to previous feeding methods.
# [2] = solubility in water; format: physicochemical; details: water at 20° C.
# [3] = test system: creatine content in muscles; details: rats, diets containing about 0.36 g/kg; cited from earlier work
# [4] = 1 g in water at 15° C.; cited from earlier work
dissolves in water [2],Structure (SMILES),decrease of consumption of feed compared to previous feeding methods [1],increase of end weight compared to previous feeding methods without guanidinoacetic acid [1] [%],meat quality [1],nature of the increase in weight [1],increase of creatine content in muscles compared to the comparison group [3] [%],solubility in water (ml water needed for 1 g) [4] [mL]
,N=C(N)NCC(=O)O.O=C(O)CCCCC1CCSS1 (stereo not shown) [guanidinoacetic acid lipoate],about 6%,5,improved quality,solely by a meat increase,,
very poorly,N=C(N)NCC(=O)O [guanidinoacetic acid],,,,,39,278
